From patent US9014457B2, “Quantifying cell death” (UCL Business PLC, priority 2009, dated 2015)
Entries after “also recorded” stand apart in the source; their conditions may differ. Like-named read-outs stand apart in the source and are kept apart here.

Key:
[1] = system: ROS production in the retina; experiment: ROS production in mouse retina in vivo visualized with DHE; conditions: intravitreal; vs vehicle/control eye
Description: FIG. 12B. The effects of rotenone on ROS production in mouse retina in vivo. ROS production visualized with DHE (dihydroethidium). DHE is a non-fluorescent agent, reacting with ROS intracellularly to produce a fluorescent oxidative product which can be detected. Rotenone (50 uM, 1 ul) was intravitreally injected into the one eye (C57) and the same volume of vehicle (saline) injected into the contralateral eye. DHE (1 ul) was then injected intravitreally and both eyes imaged to detect ROS production using a SLO machine.
FIG. 12C. The effects of PMA in producing ROS in mouse retina in vivo. PMA (50 ug/ml, 1 ul) was injected intravitreally into the one eye and saline (1 ul) into the contralateral eye. DHE (1 ul) was simultaneously injected for detecting ROS production.
FIG. 12D. The effects of Aβ25-35 on ROS production in vivo. DHE was intravitreally injected into the both eyes of a mouse to detect ROS production.

[2] = system: mitochondrial membrane potential in the retina; experiment: Mitochondrial membrane potential (MMP) in mouse eye in vivo, Rho123 fluorescence
Description: FIG. 11B. Early investigations show the effects of intravitreal rotenone on mitochondrial membrane potential (MMP) in a mouse eye in vivo.
FIG. 11C. Using the same analysis, we looked at the effects of Aβ25-35 on MMP in vivo in a mouse eye. Rho123 is a fluorescent probe, used to detect the changes in mitochondrial fluorescent density. […] The dashed line in C represents baseline fluorescence before Rho123 was injected

[3] = system: control cells; conditions: cited from earlier work
[4] = system: RGC; experiment: Staurosporine (SSP)-induced RGC apoptosis model, time-lapse in vivo imaging; parameters: species or system rat
Description: For analysis of staurosporine-induced RGC apoptosis, 14 DA rats received 0.5 μg of intravitreal staurosporine (SSP) in 5 μl phosphate-buffered saline (PBS); both Sigma Aldrich UK, to induce RGC apoptosis as previously described (Cordeiro et al., 2004). Animals were imaged immediately for up to 6 hours, after which they were killed for histology.
Using a method the inventors have recently described, rats were given 2.5 μg of intravitreal Alexa Fluor 488 labelled annexin V in 5 μl PBS for identification of RGC apoptosis, 2 hours before in vivo imaging (Cordeiro et al., 2004). For mice, the inventors used 1 μl of a 0.25 mg/ml solution of IR-labelled annexin (Annexin-IR) in intravitreal injections as previously described (Schmitz-Valckenberg et al., 2008). […]
All rats had in vivo retinal imaging performed at regular and set intervals after experimental treatment, using a prototype Zeiss confocal scanning laser ophthalmoscope (cSLO), as previously described (Cordeiro et al., 2004; Maass et al., 2007). […] Colour and raw scatter plots of annexin and PI fluorescence intensity were constructed, so data could be analysed in a similar manner to data derived by in vitro FACS analysis. […] Fluorescence intensity counts derived from raw scatter plots were used to quantify each phase of cell death. […]

[5] = system: RGC; conditions: previously established; cited from earlier work
[6] = system: RGCs; conditions: rat; cited from earlier work
[7] = human, in vivo; cited from earlier work
[8] = system: RGC; conditions: topical application; cited from earlier work
[9] = system: cortical neurons; conditions: cited from earlier work
[10] = system: retina autofluorescence (NADH, FAD); conditions: intravitreal administration
Description: Detection of FCCP-induced retinal metabolic changes in vivo in a mouse eye.

[11] = system: cortical astrocytes; conditions: 1 mM glutamate or 10 mM methyl-succinate; cited from earlier work
[12] = system: RGC; conditions: previously established; cited from earlier work; remark: listed apart in the source
[13] = system: RGC; experiment: Abeta (Aβ25-35)-induced RGC death model, in vivo cSLO imaging with annexin V and PI; parameters: species or system mouse
Description: For the analysis of Abeta, freshly made Aβ25-35 (Sigma-Aldrich, 3.40 nmol) (Dahlgren et al., 2002) was intravitreally injected into C57 mice (n=10) (Maass et al., 2007). Animals were imaged at 72 hours. For AD 3× Tg-AD studies, 4 eyes (all female, 14 months) with 2 eyes from aged control mice (PS1KI; female, 18 months) were assessed. 3× Tg-AD and control PS1KI mice were obtained from a colony (maintained at CeSI) established after a generous gift of Frank Laferla. Intravitreal phorbol myristate acetate (1 μl of 10 μg/ml) was administered to left eyes of 3× Tg-AD animals, at the same time as annexin V and PI.
Using a method the inventors have recently described, rats were given 2.5 μg of intravitreal Alexa Fluor 488 labelled annexin V in 5 μl PBS for identification of RGC apoptosis, 2 hours before in vivo imaging (Cordeiro et al., 2004). For mice, the inventors used 1 μl of a 0.25 mg/ml solution of IR-labelled annexin (Annexin-IR) in intravitreal injections as previously described (Schmitz-Valckenberg et al., 2008).
In order to identify necrotic RGCs in rats (2 μl) and mice (1 μl), propidium iodide (PI; 0.4 mg/ml, 1% solution, Sigma-Aldrich, Dorset UK) was administered intravitreally at the same time as annexin, 2 hours before in vivo imaging. PI intercalates into nucleic acids, binding to double-stranded DNA, but only crosses the plasma membrane of non-viable cells. Cells that have lost membrane integrity are thus identified by fluorescent red PI staining throughout the nuclei.
In mice, the inventors used instrumentation as previously described (Maass et al., 2007; Schmitz-Valckenberg et al., 2008), with a modified cSLO (Heidelberg Retina Angiograph 2, Heidelberg Engineering, Dossenheim, Germany) and a wide-field lens (55°). The fluorescein angiogram (488 nm argon laser) and indocyanine green (IR 790 nm diode laser) settings were used to detect PI and IR-labelled annexin respectively. The same software was used to analyse video sequenced images as described before with whole retinal monochrome images from each eye recorded and colourised. Dual-color images were produced by combining each of the grayscale images from the cSLO into the red (PI), and green (IR annexin) of an RGB color image.
The left eye of each animal was treated with intravitreal 0.40 nmol MK801 at the same time as Abeta. Wide-angle retinal images were recorded 2 hours following intravitreal annexin (green) and PI (red), as previously described (Guo at al., 2006).
To assess the relative levels of early apoptosis, late apoptosis and necrosis the inventors studied the co-localization of PI and annexin V using ImageJ software with the Intensity Correlation Analysis plugin (Li et al., 2004). Colour and raw scatter plots of annexin and PI fluorescence intensity were constructed from plugin-generated data for each animal. Corresponding scatter plots (blue) from the eyes shown in FIG. 8a-b are illustrated in FIG. 8c-d. The data were analysed in a similar manner to data derived by in vitro FACS analysis, with four quadrants (midlines shaded in colour overlay as red, green, blue and yellow) enabling separation of the different phases of cell death as annexin V positive (early apoptosis, green), annexin V and PI double positive (late apoptosis, yellow) and PI positive (necrosis, red). Thresholds were set automatically by the plugin for each analysis of each eye. The inventors then used fluorescence intensity counts from the raw scatter plots to quantify each phase of cell death.
To further assess the analytical power of the technique, the inventors next investigated whether the level of oxidative stress in Abeta-treated eyes influenced the phase of cell death and whether this was possible to visualize in vivo. […] FIG. 8f-g are taken from the right untreated (F) and left PMA-treated (G) eye of an animal treated 72 hours previously with 3.40 nmol Aβ25-35. […]

[14] = system: calcium signals in the retina; experiment: Calcium signals in vivo in a mouse eye, Fura red; conditions: ten minutes after 5 nmol; vs pre-treatment, p<0.001
Description: FIG. 13B. The effects of Aβ25-35 on calcium signals in vivo in a mouse eye. […] Ten minutes after Aβ25-35 (5 nmol) application (as shown D) however, a stronger fluorescent signal was detected in the RGCL (C).

[15] = system: calcium signal in the retina; experiment: Calcium transients in calcium transgenic mouse eye (FCIPs) in vivo; conditions: intravitreal; vs baseline
Description: FIG. 13C Calcium transgenic mice with genetically-encoded fluorescent Ca2+ indicator proteins (FCIPs) were imaged in vivo. Aβ25-35-induced calcium transients in a calcium transgenic mouse eye. […] Analysis of the fluorescent signal after Aβ injection at t=o, is shown graphically with fluorescence seen in the areas Identified by coloured boxes in inset (D,E).

[16] = system: RGC; conditions: rat, in vivo; cited from earlier work
[17] = in comparison to 360° laser trabeculoplasty; cited from earlier work
[18] = system: RGCs; conditions: cited from earlier work
[19] = system: retinal neurons; conditions: in vitro; cited from earlier work

In the case of C=C(C)[C@H]1Cc2c(ccc3c2O[C@@H]2COc4cc(OC)c(OC)cc4[C@@H]2C3=O)O1 [Rotenone], the “ROS production in the retina (DHE fluorescence)” value [1] is listed as “stronger fluorescent signals of ROS production”, the “mitochondrial membrane depolarization (Rho123 signal)” value ([2]; intravitreal 20 uM, 1 ul, vs vehicle control) is listed as “significant mitochondrial membrane depolarization” and the “ROS production (MitoSox)” value [3] is listed as “significant increase”.
For CN[C@@H]1C[C@H]2O[C@@](C)([C@@H]1OC)n1c3ccccc3c3c4c(c5c6ccccc6n2c5c31)C(=O)NC4 [SSP, staurosporine], the “cell death profile (phases) at time of peak apoptosis” value ([4]; 2 h, co-localization scatter plot analysis) is given as “significantly more cells in the late phase of apoptosis; also recorded: significantly more RGCs in the phases of late apoptosis”, the “PI staining over time” value ([4]; SSP-treated rat eye, time-lapse video over 5 hours) is given as “clear increase” and the “time point of maximal apoptosis” value [5] is given as 2 h.
In the case of glatiramer acetate [Cop-1], the “activity on RGCs in vivo” value [6] is listed as “neuroprotective activity”.
For NGF: nerve growth factor, the “functional effect in patients” value [7] is given as “neuroprotective effects functionally” and the RGC apoptosis [8] is given as “reducing”.
For C[C@]12CC[C@@H]3c4ccc(O)cc4CC[C@H]3[C@@H]1CC[C@@H]2O [17β-estradiol], the “neuronal integrity and function” value [9] is listed as “increased”.
With N#CC(C#N)=NNc1ccc(OC(F)(F)F)cc1 [FCCP, Carbonylcyanide-p-trifluoromethoxy-phenylhydrazone] the “real time autofluorescence in the retina” value [10] was “increase”.
In the case of N[C@@H](CCC(=O)O)C(=O)O [glutamate], the “slow progressive mitochondrial depolarization in response to Aβ 25-35” value [11] is listed as “abolished almost completely”.
For “Aβ25-35: amyloid beta peptide fragment 25-35 (Sigma-Aldrich), induces RGC apoptosis (GSNKGAIIGLM; Amyloid-beta protein 42; UniProt P05067 696-706, looked up, fragment)”, the “time point of maximal apoptosis” value [12] is listed as 72 h, the “cell death profile (phases) at time of peak apoptosis” value ([13]; 72 h, co-localization scatter plot analysis, listed as Abeta) is listed as “significantly more cells in the late phase of apoptosis; also recorded: significantly more RGCs in the phases of late apoptosis” and the RGC death ([13]; 72 hours after intravitreal administration of 3.40 nmol) is listed as “Significant RGC death”. For the same compound, the “ROS production in the retina (DHE fluorescence)” value [1] was “significant increase of ROS production”, the “MMP in the retina (Rho123)” value ([2]; vs baseline, few minutes delay, p<0.01) was “significant loss” and the “calcium signals in the retina (Fura red)” value [14] was “significant increase”. The “fluorescent calcium signal in the retina” value [15] was “immediate fluorescent calcium signal”.
In the case of Brc1c(NC2=NCCN2)ccc2nccnc12 [Brimonidine], the RGC survival [16] is listed as “positive effect” and the visual field deterioration [17] is listed as “reduced”.
For COc1ccc2[nH]cc(CCNC(C)=O)c2c1 [Melatonin], the “effect on RGCs in vivo” value [18] is listed as “neuroprotective effect” and the “protection of retinal neurons” value [19] is listed as “protected”.
